Assay results reported in patent publication US10576057B2, “Methods for treating muscle wasting and degeneration diseases” (NEWTREE CO., LTD., priority 2015, dated 2020).

Tests used:
[1] = system: p-4EBP1; assay: p-4EBP1 protein expression by western blot in L6 muscle cells; format: cell-based
Experimental: (§1) L6 myoblasts (ATCC, Manassas, Va., USA) were added to a 6-well plate with Dulbecco's modified Eagle's Media (DMEM; Hyclone) containing 10% fetal bovine serum (FBS; Hyclone, Logan, Utah, USA) at a concentration of 2×10^5 cells/mL. When the cell density reached about 80 to 85%, the medium in the wells was removed. […] Meanwhile, a group treated with 0.01% DMSO instead of the sample was used as a control group. This procedure was carried out for 6 days in two days to differentiate and then dissolved in NP-40 buffer solution (ELPIS-Biotech, Daejeon, Republic of Korea) containing proteinase inhibitor cocktail. The cells dissolved in the buffer solution were transferred to a 1.5-mL tube and centrifuged at 13,000 rpm for 10 minutes to take only a supernatant. The supernatant was quantified using Bradford (Bio-Rad Laboratories Inc., Hercules, Calif., USA). The quantified proteins were boiled for 5 minutes, separated by electrophoresis on 10% SDS-PAGE, and were transferred to the nitrocellulose membrane. A p-mTOR primary antibody (Cellular signaling technology, Beverly, Mass., USA) was diluted with 2.5% bovine serum albumin (BSA) at a ratio of 1:1000 and reacted with proteins transferred to the nitrocellulose membrane for 20 hours at room temperature. […]

[2] = system: atrogin-1; assay: atrogin-1 mRNA expression by RT-PCR in TNF-α-treated L6 muscle cells; format: cell-based; settings: differentiated L6 muscle cells, 50 ng/mL TNF-α
Experimental: (§2) L6 myoblast (ATCC) was added to a 6-well plate at 2×10^5 cells/ml together with DMEM (Hyclone) containing 10% FBS (Hyclone). When the cell density reached about 80% to 85%, the medium in the wells was removed and myotube differentiation was induced by treating the cells with DMEM (Hyclone) containing 2% HS (Hyclone). The medium was replaced with fresh medium every two days and the differentiation was carried out for a total of 6 days. After differentiation, 0.1 μM and 1 μM of morusin prepared in Example 2-1 were respectively dissolved in DMEM (Hyclone) containing 50 ng/mL tumor necrosis factor alph (TNF-α; PeproTech, Rocky Hills, N.J., USA), followed by their treatment on the cells. After 6 hours, total RNA was isolated using TRIzol reagent (Invitrogen). The isolated total RNA was quantified using NanoDrop 1000 (Thermo Fisher Scientific Inc.). The quantified 16 μL of RNA was synthesized into cDNA using Reverse Transcriptase Premix (ELPIS-Biotech) and PCR machine (Gene Amp PCR System 2700: Applied Biosystems) at 42° C. for 55 minutes and at 70° C. for 15 minutes. The PCR was performed by repeating 30 cycles at 95° C. for 30 seconds, at 60° C. for 1 minute and at 72° C. for 1 minute with 4 μl of 16 μl cDNA, the following specific primers (Bioneer), and PCR premix (ELPIS-Biotech): […]

[3] = system: MyoD; assay: MyoD mRNA expression by RT-PCR in L6 muscle cells; format: cell-based; settings: 6 days
Experimental: (§3) Muscle cells, L6 myoblasts (ATCC) were added to a 6-well plate at 2×10^5 cells/ml together with DMEM (Hyclone) containing 10% FBS (Hyclone). When the cell density reached about 80 to 85%, the medium in the wells was removed. […] Meanwhile, a group treated with 0.01% DMSO instead of the sample was used as a control group. This procedure was carried out for 6 days in two days to differentiate and total RNA was isolated using TRIzol reagent (Invitrogen. Carlsbad, Calif., USA). The isolated total RNA was quantified using NanoDrop 1000 (Thermo Fisher Scientific Inc., MA, USA). Quantified 16 μL of RNA was synthesized into cDNA using Reverse Transcriptase Premix (ELPIS-Biotech) and PCR machine (Gene Amp PCR System 2700: Applied Biosystems, MA, USA) at 42° C. for 55 minutes and 70° C. for 15 minutes. 4 μL out of 16 μL cDNA was amplified by PCR using the following specific primers (Bioneer, Daejeon, Republic of Korea) and PCR premix (ELPIS-Biotech). PCR was performed by repeating 30 cycles of 95° C. for 30 seconds, 60° C. for 1 minute, and 72° C. for 1 minute.
(§4) PCR-amplified cDNA was separated by electrophoresis on 1.5% agarose gel and cDNA band was identified using G:BOX EF imaging system (Syngene).
(§5) L6 myoblast (ATCC) were cultured in the same manner as in Example 7. […]

[4] = system: MuRF-1; assay: MuRF-1 mRNA expression by RT-PCR in TNF-α-treated L6 muscle cells; format: cell-based; settings: differentiated L6 muscle cells, 50 ng/mL TNF-α
Experimental: as §2

[5] = system: Wistar rats; assay: Muscle mass in TNF-α-induced muscular atrophy animal model; format: in vivo; settings: for increase in weight of muscle: 300 mg/kg body weight, 8 weeks, vs control group, p<0.01; for Average calf muscle weight: TNF-α-induced atrophy, 300 mg/kg body weight once a day for 8 weeks, right calf
Experimental: Five-week-old Wistar rats were adapted for 1 week and 100 ng/g of TNF-α was supplied for 2 weeks to induce muscular atrophy. Then, groups were randomly assigned on the basis of body weight and divided into five groups of 8 rats per each group. 500 mg/kg body weight of the ethanol extract of Mori Cortex Radicis prepared in Example 1-2, 500 mg/kg body weight of the hot-water extract of Mori Cortex Radicis prepared in Example 1-5, 300 mg/kg body weight of the morusin prepared in Example 2-1, and 300 mg/kg body weight of the kuwanon G prepared in Example 2-2 were suspended in 0.25% carboxymethylcellulose, respectively, followed by their administration on experimental groups once a day for 8 weeks at regular time. A control group was administered with TNF-α suspended in the same amount of 0.25% carboxymethyl cellulose ingested by the experimental groups.
After 8 weeks of administration, the muscles under the right calf were excised and weighed with microbalance (Mettler PE 160, USA).

[6] = system: p-mTOR; assay: p-mTOR protein expression by western blot in L6 muscle cells; format: cell-based; settings: 5 μM, differentiation 6 days, vs 0.01% DMSO control
Experimental: L6 myoblasts (ATCC, Manassas, Va., USA) were added to a 6-well plate with Dulbecco's modified Eagle's Media (DMEM; Hyclone) containing 10% fetal bovine serum (FBS; Hyclone, Logan, Utah, USA) at a concentration of 2×10^5 cells/mL. When the cell density reached about 80 to 85%, the medium in the wells was removed. The ethanol extract of Mori Cortex Radicis (20 μg/mL) prepared in Example 1-2, the hot water extract of Mori Cortex Radicis (20 μg/mL) prepared in Example 1-5, the morusin (5 μM) and the kuwanon G (5 μM) isolated and purified in Example 2 were dissolved in DMEM (Hyclone) containing 2% HS (Hyclone), followed by its treatment to the cells to induce myotube differentiation. Meanwhile, a group treated with 0.01% DMSO instead of the sample was used as a control group. This procedure was carried out for 6 days in two days to differentiate and then dissolved in NP-40 buffer solution (ELPIS-Biotech, Daejeon, Republic of Korea) containing proteinase inhibitor cocktail. The cells dissolved in the buffer solution were transferred to a 1.5-mL tube and centrifuged at 13,000 rpm for 10 minutes to take only a supernatant. The supernatant was quantified using Bradford (Bio-Rad Laboratories Inc., Hercules, Calif., USA). The quantified proteins were boiled for 5 minutes, separated by electrophoresis on 10% SDS-PAGE, and were transferred to the nitrocellulose membrane. […]

[7] = system: myogenin; assay: myogenin mRNA expression by RT-PCR in L6 muscle cells; format: cell-based; settings: 6 days
Experimental: as §3, §4, §5

[8] = system: p-p70S6K; assay: p-p70S6K protein expression by western blot in L6 muscle cells; format: cell-based
Experimental: as §1

| Compound | expression of p-4EBP1 protein ([1]; 1 μM and 5 μM) | mRNA expression of atrogin-1 ([2]; concentration not given) | expression of MyoD mRNA ([3]; 1 μM and 5 μM) | mRNA expression of MuRF-1 ([4]; concentration not given) | increase in weight of muscle [5] [%] | Average calf muscle weight [5] [mg] | expression of p-mTOR [6] | expression of myogenin mRNA ([7]; 1 μM and 5 μM) | expression of p-p70S6K protein ([8]; 1 μM and 5 μM) | expression of p-4EBP1 protein ([1]; 0.1 and 1 μM) | mRNA expression of atrogin-1 ([2]; 0.1 μM and 1 μM, 6 hours) | expression of MyoD mRNA ([3]; 0.1 and 1 μM) | mRNA expression of MuRF-1 ([4]; 0.1 μM and 1 μM, 6 hours) | expression of myogenin mRNA ([7]; 0.1 and 1 μM) | expression of p-p70S6K protein ([8]; 0.1 and 1 μM) |
| --- | --- | --- | --- | --- | --- | --- | --- | --- | --- | --- | --- | --- | --- | --- | --- |
| CC(C)=CCc1c(-c2ccc(O)cc2O)oc2c([C@H]3C=C(C)C[C@@H](c4ccc(O)cc4O)[C@@H]3C(=O)c3ccc(O)cc3O)c(O)cc(O)c2c1=O [Kuwanon G, 8-[(1S,5R,6S)-6-(2,4-Dihydroxybenzoyl)-5-(2,4-dihydroxyphenyl)-3-methyl-2-cyclohexen-1-yl]-2-(2,4-dihydroxyphenyl)-5,7-dihydroxy-3-(3-methyl-2-buten-1-yl)-4H-chromen-4-one] | increased | decreased | increased | decreased | 22.60 | 537 ± 15.2 | increased | increased | increased |  |  |  |  |  |  |
| CC(C)=CCc1c(-c2ccc(O)cc2O)oc2c3c(cc(O)c2c1=O)OC(C)(C)C=C3 [Morusin, 2-(2,4-Dihydroxyphenyl)-5-hydroxy-8,8-dimethyl-3-(3-methyl-2-buten-1-yl)-4H,8H-benzo[1,2-b:3,4-b′]dipyran-4-one] |  |  |  |  | 23.97 | 543 ± 32.9 | increased |  |  | increased | decreased | increased | decreased | increased | increased |
